From patent publication US11208412B2 (DAEGU-GYEONGBUK MEDICAL INNOVATION FOUNDATION, priority 2017, dated 2021)

How the values were obtained:
Assay in all cases: Kinase selectivity, DiscoverX scanMAX Kinase assay panel (% control)
Type in all cases: binding
[1] = target: T1, kinases of the scanMAX Kinase assay panel (Homo sapiens, UniProt P15735); details: PHKG2; 1 uM
T1 construct: purchased DiscoverX Co. (contract measurement) scanMAX Kinase assay panel
T1 sequence (P15735 1-406): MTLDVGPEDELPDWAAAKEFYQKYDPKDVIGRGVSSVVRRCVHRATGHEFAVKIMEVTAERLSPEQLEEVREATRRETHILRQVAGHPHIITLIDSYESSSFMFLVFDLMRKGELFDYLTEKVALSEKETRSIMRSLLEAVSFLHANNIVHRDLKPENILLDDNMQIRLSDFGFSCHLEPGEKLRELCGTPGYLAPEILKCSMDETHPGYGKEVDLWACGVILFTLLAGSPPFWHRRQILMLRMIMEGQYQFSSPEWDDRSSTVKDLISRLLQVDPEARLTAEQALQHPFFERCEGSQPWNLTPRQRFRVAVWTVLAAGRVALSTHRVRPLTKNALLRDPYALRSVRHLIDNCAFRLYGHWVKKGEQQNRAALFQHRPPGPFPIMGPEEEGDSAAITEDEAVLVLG
How it was run: (§1)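 A 1 uM DMSO solution of compound was applied across the panel kinases, and results were expressed as % control relative to DMSO (100%) and a positive control (0%).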

[2] = target: T2, kinases of the scanMAX Kinase assay panel (Homo sapiens, UniProt Q13470); details: kinase TNK1; 1 uM in DMSO
T2 construct: purchased DiscoverX Co. (contract measurement) scanMAX Kinase assay panel
T2 sequence (Q13470 1-666): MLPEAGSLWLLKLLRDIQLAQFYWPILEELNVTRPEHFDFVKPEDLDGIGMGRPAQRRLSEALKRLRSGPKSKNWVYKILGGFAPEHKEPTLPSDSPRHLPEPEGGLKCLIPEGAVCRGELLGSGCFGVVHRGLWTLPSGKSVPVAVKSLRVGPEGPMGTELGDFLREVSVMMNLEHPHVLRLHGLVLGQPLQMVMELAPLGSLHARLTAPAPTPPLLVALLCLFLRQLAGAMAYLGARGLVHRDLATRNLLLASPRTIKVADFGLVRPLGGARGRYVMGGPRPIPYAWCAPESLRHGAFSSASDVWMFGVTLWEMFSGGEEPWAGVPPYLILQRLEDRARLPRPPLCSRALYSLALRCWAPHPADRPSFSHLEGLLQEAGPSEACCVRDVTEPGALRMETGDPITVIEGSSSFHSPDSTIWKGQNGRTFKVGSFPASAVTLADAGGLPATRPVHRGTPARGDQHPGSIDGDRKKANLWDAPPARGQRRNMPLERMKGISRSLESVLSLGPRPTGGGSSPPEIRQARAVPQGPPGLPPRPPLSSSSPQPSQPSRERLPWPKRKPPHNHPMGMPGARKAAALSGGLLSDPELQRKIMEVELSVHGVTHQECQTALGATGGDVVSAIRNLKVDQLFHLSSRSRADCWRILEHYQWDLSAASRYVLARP
How it was run: as §1

[3] = target: T3, kinases of the scanMAX Kinase assay panel (Homo sapiens, UniProt Q9Y463); details: DYRK1B; 1 uM
T3 construct: purchased DiscoverX Co. (contract measurement) scanMAX Kinase assay panel
How it was run: as §1

[4] = target: T4, kinases of the scanMAX Kinase assay panel (Homo sapiens, UniProt P07948); details: LYN; 1 uM
T4 construct: purchased DiscoverX Co. (contract measurement) scanMAX Kinase assay panel
How it was run: as §1

[5] = target: T5, kinases of the scanMAX Kinase assay panel (Homo sapiens, UniProt P00533, G719C); details: EGFR(G719C); 1 uM
T5 construct: purchased DiscoverX Co. (contract measurement) scanMAX Kinase assay panel
How it was run: as §1

[6] = target: T6, kinases of the scanMAX Kinase assay panel (Homo sapiens, UniProt Q13546); details: kinase RIPK1; 1 uM in DMSO
T6 construct: purchased DiscoverX Co. (contract measurement) scanMAX Kinase assay panel
T6 sequence (Q13546 1-671): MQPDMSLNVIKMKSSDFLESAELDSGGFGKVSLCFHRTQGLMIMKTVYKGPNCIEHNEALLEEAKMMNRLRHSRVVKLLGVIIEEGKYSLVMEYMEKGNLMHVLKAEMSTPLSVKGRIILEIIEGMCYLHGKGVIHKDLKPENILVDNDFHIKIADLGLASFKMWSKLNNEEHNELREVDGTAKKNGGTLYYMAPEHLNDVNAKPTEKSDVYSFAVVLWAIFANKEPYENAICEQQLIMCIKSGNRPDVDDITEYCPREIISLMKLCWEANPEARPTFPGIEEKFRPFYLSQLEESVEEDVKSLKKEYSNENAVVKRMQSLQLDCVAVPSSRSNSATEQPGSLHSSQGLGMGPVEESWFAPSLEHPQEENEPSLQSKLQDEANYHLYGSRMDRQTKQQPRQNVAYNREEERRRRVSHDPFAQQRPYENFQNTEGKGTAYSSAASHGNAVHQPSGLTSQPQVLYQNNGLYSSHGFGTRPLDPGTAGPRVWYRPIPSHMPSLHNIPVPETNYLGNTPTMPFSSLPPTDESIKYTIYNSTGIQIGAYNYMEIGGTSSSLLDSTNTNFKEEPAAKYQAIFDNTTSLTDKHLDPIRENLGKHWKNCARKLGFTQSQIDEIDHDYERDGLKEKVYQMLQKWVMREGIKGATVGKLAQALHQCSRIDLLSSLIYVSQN
How it was run: as §1

[7] = target: T7, kinases of the scanMAX Kinase assay panel (Homo sapiens, UniProt P22455); details: FGFR4; 1 uM
T7 construct: purchased DiscoverX Co. (contract measurement) scanMAX Kinase assay panel
How it was run: as §1

[8] = target: T8, kinases of the scanMAX Kinase assay panel (Homo sapiens, UniProt Q9HC98); details: NEK6; 1 uM
T8 construct: purchased DiscoverX Co. (contract measurement) scanMAX Kinase assay panel
How it was run: as §1

T5 sequence (P00533 25-1210 G719C): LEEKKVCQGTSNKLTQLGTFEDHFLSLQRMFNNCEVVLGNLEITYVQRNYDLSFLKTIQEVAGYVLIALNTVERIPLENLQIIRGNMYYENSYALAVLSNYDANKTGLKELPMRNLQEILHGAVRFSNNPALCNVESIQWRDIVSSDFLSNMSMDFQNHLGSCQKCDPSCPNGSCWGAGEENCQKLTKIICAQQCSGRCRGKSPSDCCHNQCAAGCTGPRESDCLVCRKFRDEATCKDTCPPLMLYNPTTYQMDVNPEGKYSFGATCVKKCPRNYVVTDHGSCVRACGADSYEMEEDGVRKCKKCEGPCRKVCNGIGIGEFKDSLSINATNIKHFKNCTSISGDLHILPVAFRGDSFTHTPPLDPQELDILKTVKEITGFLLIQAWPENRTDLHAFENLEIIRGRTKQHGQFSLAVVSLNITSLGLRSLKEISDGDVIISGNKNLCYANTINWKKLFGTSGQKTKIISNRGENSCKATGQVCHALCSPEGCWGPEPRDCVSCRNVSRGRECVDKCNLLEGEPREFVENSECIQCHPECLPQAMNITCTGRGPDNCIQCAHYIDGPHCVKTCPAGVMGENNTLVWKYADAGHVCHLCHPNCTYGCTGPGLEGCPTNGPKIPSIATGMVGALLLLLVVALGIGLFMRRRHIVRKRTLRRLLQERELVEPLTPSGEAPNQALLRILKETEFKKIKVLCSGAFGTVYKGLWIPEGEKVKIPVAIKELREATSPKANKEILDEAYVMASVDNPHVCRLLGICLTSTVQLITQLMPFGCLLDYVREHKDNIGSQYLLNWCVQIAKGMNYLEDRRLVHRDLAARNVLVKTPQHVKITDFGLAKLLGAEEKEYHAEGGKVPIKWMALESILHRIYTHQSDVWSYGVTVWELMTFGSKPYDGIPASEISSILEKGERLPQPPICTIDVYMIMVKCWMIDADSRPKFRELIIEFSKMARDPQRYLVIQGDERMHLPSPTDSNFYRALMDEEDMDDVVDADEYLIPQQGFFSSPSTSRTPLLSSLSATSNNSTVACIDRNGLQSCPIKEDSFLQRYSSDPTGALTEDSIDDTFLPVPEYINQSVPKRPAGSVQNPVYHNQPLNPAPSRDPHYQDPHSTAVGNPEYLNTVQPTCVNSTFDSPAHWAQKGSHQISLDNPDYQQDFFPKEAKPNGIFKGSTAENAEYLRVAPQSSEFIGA
T3 sequence (Q9Y463 whole entry): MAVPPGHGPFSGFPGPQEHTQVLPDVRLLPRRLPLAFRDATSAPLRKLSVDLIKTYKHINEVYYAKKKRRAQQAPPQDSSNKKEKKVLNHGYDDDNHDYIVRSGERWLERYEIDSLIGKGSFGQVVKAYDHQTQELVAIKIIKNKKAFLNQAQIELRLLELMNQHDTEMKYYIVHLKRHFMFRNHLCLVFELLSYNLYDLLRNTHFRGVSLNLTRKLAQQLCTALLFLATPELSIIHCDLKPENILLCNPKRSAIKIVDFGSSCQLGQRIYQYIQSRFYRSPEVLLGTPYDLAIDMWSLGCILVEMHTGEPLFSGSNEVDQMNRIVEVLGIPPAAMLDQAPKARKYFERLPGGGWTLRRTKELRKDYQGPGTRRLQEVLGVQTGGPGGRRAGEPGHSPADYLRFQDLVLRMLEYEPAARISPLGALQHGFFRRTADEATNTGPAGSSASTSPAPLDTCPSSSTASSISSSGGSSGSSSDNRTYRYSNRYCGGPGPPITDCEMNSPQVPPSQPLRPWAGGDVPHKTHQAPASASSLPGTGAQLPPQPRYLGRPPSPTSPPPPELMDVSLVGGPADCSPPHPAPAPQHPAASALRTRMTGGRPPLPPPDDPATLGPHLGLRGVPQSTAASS
T4 sequence (P07948 whole entry): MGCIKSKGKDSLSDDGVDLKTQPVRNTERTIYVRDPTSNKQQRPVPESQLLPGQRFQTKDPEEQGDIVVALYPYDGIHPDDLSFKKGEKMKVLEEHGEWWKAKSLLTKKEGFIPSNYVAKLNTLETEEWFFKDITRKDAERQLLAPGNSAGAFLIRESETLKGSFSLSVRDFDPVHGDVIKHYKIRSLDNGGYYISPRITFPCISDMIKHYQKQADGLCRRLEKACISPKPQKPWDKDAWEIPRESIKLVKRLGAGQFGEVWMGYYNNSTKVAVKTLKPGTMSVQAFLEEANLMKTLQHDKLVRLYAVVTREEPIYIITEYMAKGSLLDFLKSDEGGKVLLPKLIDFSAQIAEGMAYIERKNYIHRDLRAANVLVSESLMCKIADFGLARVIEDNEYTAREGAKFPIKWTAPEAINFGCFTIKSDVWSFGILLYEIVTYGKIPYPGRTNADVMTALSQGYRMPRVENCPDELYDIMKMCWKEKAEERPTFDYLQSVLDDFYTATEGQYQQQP
T8 sequence (Q9HC98 whole entry): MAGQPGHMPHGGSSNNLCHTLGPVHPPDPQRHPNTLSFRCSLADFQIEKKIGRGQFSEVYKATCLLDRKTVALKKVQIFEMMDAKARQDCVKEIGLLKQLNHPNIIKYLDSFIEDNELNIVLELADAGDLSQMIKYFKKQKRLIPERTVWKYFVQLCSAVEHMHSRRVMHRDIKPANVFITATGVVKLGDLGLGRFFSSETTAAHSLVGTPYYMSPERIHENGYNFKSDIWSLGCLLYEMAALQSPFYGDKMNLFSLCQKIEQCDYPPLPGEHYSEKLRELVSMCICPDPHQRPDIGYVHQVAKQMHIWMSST
T7 sequence (P22455 22-802): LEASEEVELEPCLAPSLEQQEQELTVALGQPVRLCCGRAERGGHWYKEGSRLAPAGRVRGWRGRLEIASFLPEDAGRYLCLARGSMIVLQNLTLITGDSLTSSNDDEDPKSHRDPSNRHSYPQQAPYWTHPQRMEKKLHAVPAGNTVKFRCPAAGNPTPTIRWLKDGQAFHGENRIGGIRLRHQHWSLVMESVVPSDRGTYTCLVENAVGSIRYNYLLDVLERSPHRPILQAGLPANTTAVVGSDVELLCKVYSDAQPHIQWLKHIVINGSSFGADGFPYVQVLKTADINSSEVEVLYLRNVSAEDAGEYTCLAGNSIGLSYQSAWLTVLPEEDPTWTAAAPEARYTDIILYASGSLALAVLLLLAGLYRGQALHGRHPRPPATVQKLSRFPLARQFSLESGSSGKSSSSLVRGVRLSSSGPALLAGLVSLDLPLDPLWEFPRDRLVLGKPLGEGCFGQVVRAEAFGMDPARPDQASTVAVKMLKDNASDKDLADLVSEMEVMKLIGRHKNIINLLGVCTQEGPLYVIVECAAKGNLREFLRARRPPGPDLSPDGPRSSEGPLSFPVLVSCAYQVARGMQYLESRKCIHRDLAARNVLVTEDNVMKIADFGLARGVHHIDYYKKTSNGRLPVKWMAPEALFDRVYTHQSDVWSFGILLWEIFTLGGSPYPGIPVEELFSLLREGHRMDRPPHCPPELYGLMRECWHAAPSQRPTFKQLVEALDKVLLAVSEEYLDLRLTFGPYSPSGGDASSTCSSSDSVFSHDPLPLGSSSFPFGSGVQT

Q: How did the remaining binding at 1 µM [1] turn out when `CNc1nc(Nc2ccc(C(=O)N3CCOCC3)cc2OC)nc2[nH]cc(C#N)c12` [Example 1, 2-((2-methoxy-4-(morpholine-4-carbonyl)phenyl)amino)-4-(methylamino)-7H-pyrrolo[2,3-d]pyrimidine-5-carbonitrile] was run?
A: The remaining binding at 1 µM was 14%.

Q: And the remaining binding at 1 µM [2]?
A: The remaining binding at 1 µM was 85%.

Q: And the remaining binding at 1 µM [3]?
A: Its remaining binding at 1 µM is 13%.

Q: What about the remaining binding at 1 µM [4] of the same molecule?
A: Its remaining binding at 1 µM is 90%.

Q: And the remaining binding at 1 µM [5]?
A: The remaining binding at 1 µM was 82%.

Q: What about the remaining binding at 1 µM [6] of the same molecule?
A: Its remaining binding at 1 µM is 94%.

Q: What about the remaining binding at 1 µM [7] of the same molecule?
A: The remaining binding at 1 µM was 89%.

Q: And the remaining binding at 1 µM [8]?
A: The remaining binding at 1 µM was 95%.

Q: Which remaining binding at 1 µM [1] does the source give for `CC1(Nc2nc(Nc3cnn([C@H]4CCN(C5COC5)C[C@@H]4F)c3Cl)nc3[nH]cc(C#N)c23)CC1` [Example 52, 2-((5-chloro-1-((3S,4S)-3-fluoro-1-(oxetane-3-yl)piperidine-4-yl)-1H-pyrazole-4-yl)amino)((1-methylcyclopropyl)amino)-7H-pyrrolo[2,3-d]pyrimidine-5-carbonitrile] here?
A: Its remaining binding at 1 µM is 5.2%.

Q: And the remaining binding at 1 µM [2]?
A: Its remaining binding at 1 µM is 18%.

Q: And the remaining binding at 1 µM [3]?
A: Its remaining binding at 1 µM is 0.55%.

Q: What about the remaining binding at 1 µM [4] of the same molecule?
A: The remaining binding at 1 µM was 36%.

Q: And the remaining binding at 1 µM [5]?
A: The remaining binding at 1 µM was 71%.

Q: What about the remaining binding at 1 µM [6] of the same molecule?
A: Its remaining binding at 1 µM is 14%.

Q: What about the remaining binding at 1 µM [7] of the same molecule?
A: The remaining binding at 1 µM was 31%.

Q: What about the remaining binding at 1 µM [8] of the same molecule?
A: The remaining binding at 1 µM was 93%.

Q: `CCNc1nc(Nc2ccc(C(=O)N3CCC(N4CCOCC4)CC3)cc2OC)nc2[nH]cc(C(F)(F)F)c12` [Example 104, (4-((4-(ethylamino)-5-(trifluoromethyl)-7H-pyrrolo[2,3-d]pyrimidine-2-yl)amino)-3-methoxyphenyl)(4-morpholinopiperidine-1-yl)methanone] was tested. Which remaining binding at 1 µM [1] did it give?
A: Its remaining binding at 1 µM is 9.3%.

Q: And the remaining binding at 1 µM [2]?
A: The remaining binding at 1 µM was 16%.

Q: And the remaining binding at 1 µM [3]?
A: The remaining binding at 1 µM was 0%.

Q: And the remaining binding at 1 µM [4]?
A: The remaining binding at 1 µM was 100%.

Q: And the remaining binding at 1 µM [5]?
A: The remaining binding at 1 µM was 96%.

Q: What about the remaining binding at 1 µM [6] of the same molecule?
A: The remaining binding at 1 µM was 100%.

Q: What about the remaining binding at 1 µM [7] of the same molecule?
A: Its remaining binding at 1 µM is 38%.

Q: And the remaining binding at 1 µM [8]?
A: Its remaining binding at 1 µM is 100%.
